Assays:
Test in all cases: normalised viability (% of control), CellTiter-Blue; higher = more viable cells (about 100 = DMSO control)
Settings in all cases: incubation time: 72 h
[1] = system: CAL-85-1
How it was run: (§1)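 The reported quantity is normalised viability at a single listed concentration of the series. Compound in 5 µl medium was pre-dispensed into 384-well plates and 20 µl of breast cancer cell suspension was added for 72 h. A 2 h, 37 °C CellTiter-Blue step (2.5 µl) preceded fluorescence reading at 560/590 nm, and plates were normalised to vehicle (100) and a positive kill control (0).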

[2] = system: CAL-51
How it was run: as §1

[3] = system: HDQ-P1
How it was run: as §1

[4] = system: BT-474
How it was run: as §1

[5] = system: HCC1937
How it was run: as §1

[6] = system: HCC1599
How it was run: as §1

[7] = system: HCC1143
How it was run: as §1

[8] = system: SK-BR-3
How it was run: as §1

[9] = system: MDA-MB-436
How it was run: as §1

[10] = system: DU-4475
How it was run: as §1

[11] = system: MDA-MB-231
How it was run: as §1

[12] = system: CAL-51; remark: listed apart in the source
How it was run: as §1

[13] = system: BT-474; remark: listed apart in the source
How it was run: as §1

[14] = system: HCC1937; remark: listed apart in the source
How it was run: as §1

[15] = system: HCC1599; remark: listed apart in the source
How it was run: as §1

[16] = system: SK-BR-3; remark: listed apart in the source
How it was run: as §1

[17] = system: CAL-85-1; remark: listed apart in the source
How it was run: as §1

[18] = system: DU-4475; remark: listed apart in the source
How it was run: as §1

[19] = system: MDA-MB-231; remark: listed apart in the source
How it was run: as §1

[20] = system: CAL-148
How it was run: as §1

[21] = system: CAL-120
How it was run: as §1

[22] = system: BT-549
How it was run: as §1

[23] = system: CAL-51; remark: listed apart in the source
How it was run: as §1

[24] = system: MFM-223
How it was run: as §1

[25] = system: HDQ-P1; remark: listed apart in the source
How it was run: as §1

[26] = system: BT-474; remark: listed apart in the source
How it was run: as §1

[27] = system: HCC1937; remark: listed apart in the source
How it was run: as §1

[28] = system: MDA-MB-468
How it was run: as §1

[29] = system: HCC1599; remark: listed apart in the source
How it was run: as §1

[30] = system: MDA-MB-453
How it was run: as §1

[31] = system: HCC1143; remark: listed apart in the source
How it was run: as §1

[32] = system: SK-BR-3; remark: listed apart in the source
How it was run: as §1

[33] = system: MDA-MB-436; remark: listed apart in the source
How it was run: as §1

[34] = system: Hs578T
How it was run: as §1

C/C(=C\c1csc(C)n1)[C@@H]1C[C@@H]2O[C@]2(C)CCC[C@H](C)[C@H](O)[C@@H](C)C(=O)C(C)(C)[C@@H](O)CC(=O)O1 [Patupilone] showed a normalised viability ([1]; 1 nM) of 73.7%, a normalised viability ([2]; 1 nM) of 104% and a normalised viability ([3]; 1 nM) of 125%. The normalised viability ([4]; 10 nM) was 66.4%, the normalised viability ([5]; 10 nM) was 25.5% and the normalised viability ([6]; 10 nM) was 111%. The normalised viability ([7]; 10 nM) was 66%, the normalised viability ([8]; 10 nM) was 28.4% and the normalised viability ([9]; 10 nM) was 66.2%. It also gave a normalised viability ([10]; 10 nM) of 57.5%, a normalised viability ([11]; 1000 nM) of 30.7% and a normalised viability ([12]; 10 nM) of 59.1%. For the same molecule, the normalised viability ([13]; 1000 nM) was 25.4%, the normalised viability ([14]; 1000 nM) was 20.4% and the normalised viability ([15]; 1000 nM) was 79.3%. It also gave a normalised viability ([16]; 1000 nM) of 15.2%, a normalised viability ([17]; 3 nM) of 49.4% and a normalised viability ([18]; 3 nM) of 89.2%. For the same molecule, the normalised viability ([19]; 100 nM) was 20.1%, the normalised viability ([20]; 3 nM) was 57.9% and the normalised viability ([21]; 100 nM) was 23.2%. For the same molecule, the normalised viability ([22]; 100 nM) was 27.2%, the normalised viability ([23]; 3 nM) was 103% and the normalised viability ([24]; 100 nM) was 45.9%. For the same molecule, the normalised viability ([25]; 3 nM) was 107%, the normalised viability ([26]; 100 nM) was 24.8% and the normalised viability ([27]; 100 nM) was 10.9%. It also gave a normalised viability ([28]; 100 nM) of 49.5%, a normalised viability ([29]; 100 nM) of 92.2% and a normalised viability ([30]; 3 nM) of 63.5%. For the same molecule, the normalised viability ([31]; 100 nM) was 34.3%, the normalised viability ([32]; 100 nM) was 15.8% and the normalised viability ([33]; 100 nM) was 39.5%. The normalised viability ([34]; 100 nM) was 14.1%.

With CCCCCCCCc1ccc(CCC(N)(CO)CO)cc1 [Fingolimod] the normalised viability ([1]; 10 nM) was 103%, the normalised viability ([2]; 10 nM) was 117% and the normalised viability ([3]; 10 nM) was 119%. It also gave a normalised viability ([4]; 100 nM) of 119%, a normalised viability ([5]; 100 nM) of 99% and a normalised viability ([6]; 100 nM) of 93.9%. The normalised viability ([7]; 100 nM) was 106%, the normalised viability ([8]; 100 nM) was 85.8% and the normalised viability ([9]; 100 nM) was 101%. For the same molecule, the normalised viability ([10]; 100 nM) was 107%, the normalised viability ([11]; 10000 nM) was 0.68% and the normalised viability ([12]; 100 nM) was 111%. The normalised viability ([13]; 10000 nM) was 2.28%, the normalised viability ([14]; 10000 nM) was 2.06% and the normalised viability ([15]; 10000 nM) was 128%. For the same molecule, the normalised viability ([16]; 10000 nM) was 3.17%, the normalised viability ([17]; 30 nM) was 87.1% and the normalised viability ([18]; 30 nM) was 119%. It also gave a normalised viability ([19]; 1000 nM) of 86.8%, a normalised viability ([20]; 30 nM) of 84% and a normalised viability ([21]; 1000 nM) of 88.5%. It also gave a normalised viability ([22]; 1000 nM) of 88.7%, a normalised viability ([23]; 30 nM) of 111% and a normalised viability ([24]; 1000 nM) of 106%. For the same molecule, the normalised viability ([25]; 30 nM) was 126%, the normalised viability ([26]; 1000 nM) was 113% and the normalised viability ([27]; 1000 nM) was 95.4%. It also gave a normalised viability ([28]; 1000 nM) of 105%, a normalised viability ([29]; 1000 nM) of 113% and a normalised viability ([30]; 30 nM) of 100%. For the same molecule, the normalised viability ([31]; 1000 nM) was 106%, the normalised viability ([32]; 1000 nM) was 108% and the normalised viability ([33]; 1000 nM) was 81.4%. For the same molecule, the normalised viability ([34]; 1000 nM) was 100%.
